Experiment [1] has as its system Ki67-SR39h-expressing hESC transplanted into the striatum. Put plainly: In vivo prevention of tumor formation after striatal transplantation. The following applies: 40 mg/kg/day i.p., 47 days post-transplantation. Set-up: species or system NOD/SCID mice. Here is the method: Given the encouraging in vitro results, we next investigated whether this newly developed safety switch system (SR39h and different nucleoside analogs) could prevent tumor formation in vivo. For this purpose, 20,000 undifferentiated Ki67-SR39h-expressing hESC were transplanted into the striatum of NOD/SCID mice. […] A group of control mice received only a NaCl solution. […] Human cytoplasmic marker (HCM) staining confirmed the human (i.e., hESC-derived) origin of these tumors. Tumors cells were predominantly Ki67 positive with a rosette organization as frequently found in tumors of the central nervous system.
Figure 7 in vivo validation of suicide gene and inducers. (A) Schematic diagram of the experimental setup to detect tumor elimination in vivo. NOD/SCID mice were transplanted with 20,000 SR39h-expressing hESC through stereotactic injection into the striatum. 48 h post transplantation, mice were intraperitoneally injected with the respective nucleoside (40 mg/kg) for five consecutive days a week during a two-week period. Control mice were treated with a NaCl solution. Mice were sacrificed 47 days post transplantation. (B) Cresyl violet staining of a brain section. […] (C) Immunostaining of brain coronal section (sections from ACV-, PCV-, and GCV-treated mice are shown in the upper, middle, and lower row, respectively). Staining with the proliferation marker Ki67 and with the human cytoplasmic marker (HCM) are shown in red and green, respectively. Nuclei were counterstained with DAPI (blue). White arrows show residual proliferative cells form the graft. A merge of the three staining is shown in the right column. Each experimental group consisted of five mice.
Single cell transplant: Undifferentiated HS420 (expressing TK variants) were detached by TrypLE and concentrated at 20,000 cells/μL in Stemflex. 20,000 cells (1 μL) were injected into the right striatum using a 26-G Hamilton syringe (Hamilton, BGB Analytik AG, Boeckten, Switzerland). Injection coordinates for striatum were: bregma = 0.6 mm, mediolateral = 2 mm, dorsoventral = 3 mm.
Thirty days after termination of treatment with the respective antiviral nucleoside analogs or control (NaCl), mice were sacrificed by intracardiac perfusion of paraformaldehyde 4% in PBS. Brains were removed from the skull and post-fixed in the same fixative overnight.
Paraffin embedded brains were sectioned (coronal sections 7 µm thick) and processed for hematoxylin and eosin or cresyl violet staining stain aiming morphological assessment of the graft. Sections were mounted in Eukitt (Kindler GmbH, Germany) and observed under microscope (see below)
The primary antibody diluted in PBS with 0.3% Triton was incubated at 4 °C overnight in agitation. […]

Experiment [2] has as its system hESC (HS420) expressing Ki67-SR39h. Nature of the experiment: ATP-based cell survival assay, nucleoside-induced cell death. The note with it: for EC50: Homo sapiens, 96 h.

The EC50 is the concentration at which the effect is half-maximal.

“Also recorded” adds a separate entry of the source. Read-outs that look alike come from different tables or passages of the source.

Turning to `Nc1nc(O)c2ncn(COC(CO)CO)c2n1` [GCV, ganciclovir], the Tumor formation entry in experiment [1] (five consecutive days a week for two weeks, from 2 days after transplantation, five mice per group) was “prevented tumor formation; also recorded: no major tumors; also recorded: impressive anti-tumor activities”. In addition, the “Mice with a small nuclei-rich region at the graft site” value in experiment [1] (cresyl violet staining) is listed as “did not observe any structures resembling tumors”. Also, in experiment [2] (96 h nucleoside exposure), the “Cell death induction in SR39h-expressing cells (in words)” value is on record as “strong suicide inducers”. For the same compound, in experiment [2] (GCV EC50, SR39h vs SR39), the “Fold more performant than SR39” value worked out at 10 fold. Besides, the EC50 in experiment [2] (read-out: EC50 (cell survival), 96 h nucleoside exposure, SR39h under Ki67 promoter) was 0.2 nM; in experiment [2] (read-out: GCV EC50 in M, 96 h GCV exposure, Ki67-SR39h), 0.19 nM.

The record behind these values is article PMC8834506, “Optimization of Thymidine Kinase-Based Safety Switch for Neural Cell Therapy” (Cells, 2022).
